Entries after “also recorded” stand apart in the source; their conditions may differ. Like-named read-outs stand apart in the source and are kept apart here.
Columns and labels:
human placental AP = biological target: T1, human placental AP (Homo sapiens, UniProt P05187); assay: Inhibition of human placental AP isoenzyme (p-nitrophenylphosphate hydrolysis); assay type: biochemical; conditions: for order of effectiveness, placental isoenzymes / effectiveness against placental isoenzymes: FIG. 5; for inhibition of the placental isoenzymes: FIG. 7, at the concentration compared with E. coli AP; for times more potent than L-phenylalanine, placental isoenzymes: ratio to L-phenylalanine; for times more potent than levamisole, placental isoenzymes: ratio to levamisole
T1 construct: purchased Sigma Chemical Co., St. Louis, Mo
Description: (§1) Human intestinal AP was obtained from Aalto Scientific, Ltd. Vista, Calif. […] L-Phenylalanine was obtained from Aldrich Chemical Company, Milwaukee, Wis. Human bone AP was isolated from human osteosarcoma-derived cell line, Saos-2 (Catalog No. HTB 85, The American Type Culture Collection, 12301 Parklawn Drive, Rockville, Md.) by butanol extraction as described by J. R. Farley et al., (1989) Clin Chem. 35, 223-229.
(§2) AP activity was determined with VP Bichromatic Analyzer (Abbott Laboratories) by monitoring the appearance of the yellow product, p-nitrophenol, produced as a result of the enzyme catalyzed hydrolysis of the colorless substrate, p-nitrophenylphosphate. The stock preparations of E. coli and human AP were diluted to 0.3-1.0 U/ml with 0.1M Tris buffer, pH 8.0, containing 1 mM magnesium chloride, 0.1 mM zinc chloride and 5 mg/ml bovine serum albumin. […] The diluted enzyme solutions were prepared fresh just before the start of the experiments. The final assay conditions for the human and E. coli AP were as follows:
(§3) Human AP Isoenzymes: p-Nitrophenylphosphate (2.2 mmol/liter); Diethanolamine (500 mmol/liter); Magnesium chloride (1 mmol/liter); Zinc chloride (0.1 mmol/liter). The reaction pH was 10.2 at a reaction temperature of 37° C. and volume fraction (sample/total) of 0.033 (1:30).
(§4) The diluted enzymes and inhibitors at appropriate concentrations (as shown in the Figures) were hand pipetted into numbered cuvettes in the multicuvette assembly of the VP Bichromatic Analyzer. Once the assay was started, the analyzer dispensed an appropriate amount of the buffered solution of p-nitrophenylphosphate containing magnesium and zinc chlorides into each cuvette. The multicuvette assembly rotated and allowed measurement of absorbance changes at every two minutes intervals. A 415 nm-450 nm filter was used to assay AP activity. All enzyme activity measurements were done at least in duplicate and the average value was used in the data analyses.
(§5) The I50 value for APl-3 is similarly calculated from its dose response curve.

E. coli AP = assay: Inhibition of (altered) E. coli AP (p-nitrophenylphosphate hydrolysis); assay type: biochemical; conditions: FIG. 7, at the concentration inhibiting human isoenzymes, high concentrations
Description: E. coli AP (APKJ3 and APKJ4) were obtained according to the methods disclosed in U.S. patent Ser. No. 08/031,165 and its CIP. APKJ4 is an E. coli AP in which the lysine at its position 177 has been replaced with cysteine.
as §2
E. coli AP: P-Nitrophenylphosphate (1 mmol/liter); Tris-chloride (100 mmol/liter); Magnesium chloride (1 mmol/liter); and Zinc chloride (0.1 mmol/liter). The reaction pH was 8.0 at a reaction temperature of 37° C. and volume fraction (sample/total) of 0.033 (1:30).
as §4

human intestinal AP = biological target: T2, human intestinal AP (Homo sapiens, UniProt P09923); assay: Inhibition of human intestinal AP isoenzyme (p-nitrophenylphosphate hydrolysis); assay type: biochemical; conditions: for effectiveness against intestinal isoenzymes / order of effectiveness, intestinal isoenzymes: FIG. 6; for inhibition of the intestinal isoenzymes: FIG. 7, at the concentration compared with E. coli AP; for times as potent/effective as L-phenylalanine, intestinal isoenzymes: ratio to L-phenylalanine; for times as potent/effective as levamisole, intestinal isoenzymes: ratio to levamisole
T2 construct: purchased Aalto Scientific, Ltd., Vista, Calif
T2 sequence (P09923 20-503 limits assumed): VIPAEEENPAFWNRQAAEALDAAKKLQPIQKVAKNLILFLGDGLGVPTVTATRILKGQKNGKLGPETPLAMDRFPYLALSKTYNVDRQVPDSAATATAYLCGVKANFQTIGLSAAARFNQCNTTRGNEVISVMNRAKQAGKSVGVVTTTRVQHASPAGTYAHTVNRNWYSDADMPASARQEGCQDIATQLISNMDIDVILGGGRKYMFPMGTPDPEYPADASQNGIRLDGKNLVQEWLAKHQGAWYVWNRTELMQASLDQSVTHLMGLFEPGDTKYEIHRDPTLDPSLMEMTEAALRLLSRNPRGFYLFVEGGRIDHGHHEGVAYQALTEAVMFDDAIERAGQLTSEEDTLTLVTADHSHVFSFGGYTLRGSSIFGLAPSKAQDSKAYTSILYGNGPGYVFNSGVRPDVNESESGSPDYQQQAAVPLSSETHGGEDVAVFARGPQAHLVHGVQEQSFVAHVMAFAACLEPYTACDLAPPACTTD
Description: as §1, §2, §3, §4, §5

human AP = assay: Selectivity for human AP versus E. coli AP; assay type: biochemical; conditions: FIG. 7
Description: as §2, §3
E. coli AP: P-Nitrophenylphosphate (1 mmol/liter); Tris-chloride (100 mmol/liter); Magnesium chloride (1 mmol/liter); and Zinc chloride (0.1 mmol/liter). […]
The diluted enzymes and inhibitors at appropriate concentrations (as shown in the Figures) were hand pipetted into numbered cuvettes in the multicuvette assembly of the VP Bichromatic Analyzer. […] The multicuvette assembly rotated and allowed measurement of absorbance changes at every two minutes intervals. […]

calf intestinal AP [1] = biological target: T3, calf intestinal AP (Bos taurus, UniProt P19111); assay: Inhibition of calf intestinal AP; assay type: biochemical; conditions: for inhibition of calf intestinal AP versus E. coli AP: compared with E. coli AP; for inhibition of calf intestinal AP versus L-phenylalanine and levamisole: compared with L-phenylalanine and levamisole; for inhibition of calf intestinal AP versus human intestinal AP: compared with human intestinal AP
human bone AP = biological target: T4, human bone AP (Homo sapiens, UniProt P05186); assay: Inhibition of human bone AP isoenzyme (p-nitrophenylphosphate hydrolysis); assay type: biochemical; conditions: for order of potency as inhibitors of bone AP: FIG. 4; for IC50: read-out: [I]50 Bone AP: concentration of inhibitor that gives 50% inhibition of enzyme activity; for times more active than levamisole, bone isoenzymes: ratio to levamisole
T4 construct: Human bone AP was isolated from human osteosarcoma-derived cell line, Saos-2; host or cells: Saos-2 (human osteosarcoma-derived cell line, ATCC), butanol extraction
T4 sequence (P05186 18-502 limits assumed): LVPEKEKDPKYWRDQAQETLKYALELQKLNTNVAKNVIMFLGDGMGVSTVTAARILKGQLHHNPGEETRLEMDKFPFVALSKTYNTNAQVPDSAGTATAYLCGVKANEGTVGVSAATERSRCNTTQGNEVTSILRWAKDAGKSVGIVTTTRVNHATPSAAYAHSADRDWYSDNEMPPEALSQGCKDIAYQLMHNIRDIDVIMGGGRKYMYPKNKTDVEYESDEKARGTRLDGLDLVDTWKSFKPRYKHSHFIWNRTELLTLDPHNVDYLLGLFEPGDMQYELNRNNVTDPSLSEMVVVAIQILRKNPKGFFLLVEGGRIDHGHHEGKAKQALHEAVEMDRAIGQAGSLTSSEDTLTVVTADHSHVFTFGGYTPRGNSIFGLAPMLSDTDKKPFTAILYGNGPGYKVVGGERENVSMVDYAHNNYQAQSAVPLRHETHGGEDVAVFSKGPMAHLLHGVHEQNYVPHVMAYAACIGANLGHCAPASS
Description: as §1, §2, §3, §4, §5

AP = conditions: cited from earlier work
tissue-nonspecific AP = conditions: background art; cited from earlier work
calf intestinal AP [2] = biological target: T3, calf intestinal AP; conditions: used in an immunoassay; cited from earlier work
[3] = tested on: placental and intestinal isoenzymes; conditions: background art; cited from earlier work
[4] = pH 10.2, 37° C., p-nitrophenylphosphate 2.2 mmol/liter, from dose response curves, read-out: [I]50 Placental AP: concentration of inhibitor that gives 50% inhibition of enzyme activity
[5] = pH 10.2, 37° C., p-nitrophenylphosphate 2.2 mmol/liter, from dose response curves, read-out: [I]50 Intestinal AP: concentration of inhibitor that gives 50% inhibition of enzyme activity
[6] = pH 10.2, 37° C., p-nitrophenylphosphate 2.2 mmol/liter, from dose response curves

T1 sequence (P05187 23-506 limits assumed): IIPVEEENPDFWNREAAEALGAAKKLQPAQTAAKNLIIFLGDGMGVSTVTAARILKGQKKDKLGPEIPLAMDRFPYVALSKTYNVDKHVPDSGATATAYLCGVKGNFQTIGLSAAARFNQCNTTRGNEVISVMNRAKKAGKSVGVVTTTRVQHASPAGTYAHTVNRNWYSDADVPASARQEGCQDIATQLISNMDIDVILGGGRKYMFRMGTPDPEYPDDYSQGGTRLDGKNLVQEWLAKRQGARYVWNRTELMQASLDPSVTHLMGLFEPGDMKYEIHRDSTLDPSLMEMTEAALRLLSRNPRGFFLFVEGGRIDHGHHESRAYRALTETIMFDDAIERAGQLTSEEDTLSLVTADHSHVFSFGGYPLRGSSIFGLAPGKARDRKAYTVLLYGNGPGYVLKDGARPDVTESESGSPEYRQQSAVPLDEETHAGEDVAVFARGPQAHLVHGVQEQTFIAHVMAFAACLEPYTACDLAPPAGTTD
T3 sequence (P19111 20-506): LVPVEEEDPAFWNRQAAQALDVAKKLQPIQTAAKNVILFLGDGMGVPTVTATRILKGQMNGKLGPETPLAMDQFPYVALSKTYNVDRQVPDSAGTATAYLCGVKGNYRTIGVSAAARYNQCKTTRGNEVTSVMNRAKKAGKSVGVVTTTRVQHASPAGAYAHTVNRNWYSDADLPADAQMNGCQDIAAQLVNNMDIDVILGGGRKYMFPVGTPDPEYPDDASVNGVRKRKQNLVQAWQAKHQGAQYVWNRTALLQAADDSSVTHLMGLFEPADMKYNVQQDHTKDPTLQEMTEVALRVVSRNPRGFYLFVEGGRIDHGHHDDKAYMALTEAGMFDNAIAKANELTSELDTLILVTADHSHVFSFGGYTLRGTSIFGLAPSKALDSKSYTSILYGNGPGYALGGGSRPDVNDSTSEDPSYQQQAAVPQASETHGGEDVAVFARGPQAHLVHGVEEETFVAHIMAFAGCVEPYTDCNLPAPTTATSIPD

| SMILES | order of effectiveness, placental isoenzymes (human placental AP) | inhibition of the placental isoenzymes (human placental AP) [%] | IC50 (human placental AP; [4]) [µM] | times more potent than L-phenylalanine, placental isoenzymes (human placental AP) [times] | times more potent than levamisole, placental isoenzymes (human placental AP) [times] | inhibition of the E. coli AP (E. coli AP) [%] | effectiveness against intestinal isoenzymes (human intestinal AP) | order of effectiveness, intestinal isoenzymes (human intestinal AP) | inhibition of the intestinal isoenzymes (human intestinal AP) | IC50 (human intestinal AP; [5]) [µM] | times as potent/effective as L-phenylalanine, intestinal isoenzymes (human intestinal AP) [times] | times as potent/effective as levamisole, intestinal isoenzymes (human intestinal AP) [times] | selectivity for human AP compared to levamisole (human AP) | inhibition of calf intestinal AP versus E. coli AP (calf intestinal AP [1]) | inhibition of calf intestinal AP versus L-phenylalanine and levamisole (calf intestinal AP [1]) | order of potency as inhibitors of bone AP (human bone AP) | IC50 (human bone AP; [6]) [µM] | times more active than levamisole, bone isoenzymes (human bone AP) [times] | effectiveness against placental isoenzymes (human placental AP) | sensitivity of tissue-nonspecific AP to inhibitor (tissue-nonspecific AP) | also measured |
| --- | --- | --- | --- | --- | --- | --- | --- | --- | --- | --- | --- | --- | --- | --- | --- | --- | --- | --- | --- | --- | --- |
| c1ccc(Oc2ccc(C3CN4CCSC4=N3)cc2)cc1 (racemic) [API-1, (dl)-2,3,5,6-tetrahydro-6-(4-phenoxyphenyl)-imidazo[2,1-b]-thiazole] | APl-2>APl-1>levamisole>L-phenylalanine | 90 | 160 | 19 | 14 | ≤ 10 | much more effective inhibitors than levamisole and L-phenylalanine | APl-2>APl-1>L-phenylalanine>levamisole | 50-60% | 1000 | 5 | 12 | much more selective inhibitors of human AP compared to levamisole | inhibited calf intestinal AP more than E. coli AP | more efficient than L-phenylalanine and levamisole at inhibiting calf intestinal AP | APl-2>APl-1>levamisole | 4 | 15 | – | – | inhibition of calf intestinal AP versus human intestinal AP (calf intestinal AP [1]; listed as APl-1): more effective in inhibiting human intestinal AP than calf intestinal AP; also recorded: calf intestinal AP is more resistant to inhibition; inhibition of bone isoenzymes (human bone AP; listed as APl-1): nearly complete inhibition at much lower concentrations compared to levamisole |
| C1=CN2CC(c3ccc(Oc4ccccc4)cc3)N=C2S1 (racemic) [API-2, (dl)-5,6-dihydro-6-(4-phenoxyphenyl)-imidazo-[1,2-b]-thiazole] | APl-2>APl-1>levamisole>L-phenylalanine | 90 | 26 | 115 | 85 | ≤ 10 | much more effective inhibitors than levamisole and L-phenylalanine | APl-2>APl-1>L-phenylalanine>levamisole | 50-60% | 200 | 23 | 60 | much more selective inhibitors of human AP compared to levamisole | inhibited calf intestinal AP more than E. coli AP | more efficient than L-phenylalanine and levamisole at inhibiting calf intestinal AP | APl-2>APl-1>levamisole | 0.6 | 100 | – | – | times more potent than compound APl-1, placental isoenzymes (human placental AP; ratio to APl-1): about 6 times; times as effective as APl-1, intestinal isoenzymes (human intestinal AP; ratio to APl-1): 5 times; inhibition of calf intestinal AP versus human intestinal AP (calf intestinal AP [1]; listed as APl-2): more effective in inhibiting human intestinal AP than calf intestinal AP; also recorded: calf intestinal AP is more resistant to inhibition; inhibition of bone isoenzymes (human bone AP; listed as APl-2): nearly complete inhibition at much lower concentrations compared to levamisole |
| c1ccc(-c2ccc(C3CN4CCSC4=N3)cc2)cc1 (racemic) [API-3, (dl)-2,3,5,6-tetrahydro-6-(biphenyl)-imidazo-[1,2-b]-thiazole] | – | – | 500 | – | – | – | – | – | – | – | – | – | – | – | – | – | – | – | – | – | – |
| c1ccc([C@@H]2CN3CCSC3=N2)cc1 [D- counterpart] | – | – | – | – | – | – | – | – | – | – | – | – | – | – | – | – | – | – | – | – | AP inhibition by D- counterpart of levamisole (AP): not an AP inhibitor |
| N[C@@H](Cc1ccccc1)C(=O)O [L--Phe, L-phenylalanine, reference compound] | APl-2>APl-1>levamisole>L-phenylalanine | – | – | – | – | – | – | APl-2>APl-1>L-phenylalanine>levamisole | – | – | – | – | – | – | – | – | – | – | a lot less effective compared to compounds APl-1 and APl-2 | not sensitive; also recorded: does not inhibit tissue-nonspecific AP isoenzymes | IC50 (human placental AP): 3000 µM; IC50 (human intestinal AP): 4500 µM; inhibition of bone isoenzymes (human bone AP): does not inhibit bone isoenzymes; also recorded: activation of the bone isoenzymes; [I]50 Bone AP: concentration of inhibitor that gives 50% inhibition of enzyme activity (human bone AP; [6]): Activation; activation at 10000 µM (human bone AP; read-out: increase in activity of bone AP): ≤ 40% |
| c1ccc([C@H]2CN3CCSC3=N2)cc1 [Levamisole, (L-)2,3,5,6-tetrahydro-6-phenylimidazo[1,2-b]thiazole, reference compound] | APl-2>APl-1>levamisole>L-phenylalanine | 80 | 2200 | – | – | 65 | – | APl-2>APl-1>L-phenylalanine>levamisole | 48% | 12000 | – | – | – | – | – | – | – | – | a lot less effective compared to compounds APl-1 and APl-2 | strongly inhibited | effect on specific immuno-signal generated by calf intestinal AP (calf intestinal AP [2]): does not interfere with the specific immuno-signal generated by calf intestinal AP; inhibition of placental and intestinal isoenzymes [3]: only at much higher concentrations |

— patent US5516647A, “Compounds useful as alkaline phosphatase inhibitors and therapeutic agents” (Abbott Laboratories, priority 1993, dated 1996)
